Reference: patent publication US20170152239A1, “BENZAMIDE AND HETEROBENZAMIDE COMPOUNDS” (PFIZER INC., priority 2012, published 2017)

Experiments:
Type in all cases: biochemical
[1] = target: WT EZH2 (EZH2 4 protein complex: EZH2, EED, SUZ12, RbAp48) (Homo sapiens, UniProt Q15910); test: WT EZH2 nucleosome assay; conditions: compound at 20 μM; nucleosome assay
Summary of the method: (§1)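 IC50 values come from 4-parameter fits of 11-point dose responses, with % effect also given at 20 μM. Reactions held HeLa oligonucleosomes (25 μg/mL), rH1 (50 nM), 1.5 μM tritiated SAM and 5 nM enzyme complex at pH 8.5 Tris/DTT/Tween; stopped by TCA after 60 min, filtered and scintillation-counted.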

[2] = target: WT EZH2 (EZH2 4 protein complex: EZH2, EED, SUZ12, RbAp48) (Homo sapiens, UniProt O75530+Q09028+Q15022+Q15910); test: WT EZH2 nucleosome assay; conditions: nucleosome assay, 5 nM EZH2 4-protein complex, 1.5 μM SAM; read-out: WT EZH2 IC50
Summary of the method: as §1

EZH2PRC2 mutant Y641N = EZH2PRC2 mutant Y641N (Homo sapiens, UniProt Q15910, Y641N); test: EZH2PRC2 mutant Y641N nucleosome assay; conditions: read-out: EZH2PCR2 Mutant Y641N IC50
Protocol: Nucleosome Assay Protocol:
A. Compound preparation • 1. Prepare 10 mM stock solutions in 100% DMSO from solid material • 2. Serial dilute 10 mM compound stocks either 2 or 3-fold in 100% DMSO to generate compounds for 11 point dose response
B. Reagent preparation • 1. Prepare 1× assay buffer containing 100 mM Tris pH 8.5, 4 mM DTT and 0.01% Tween-20 • 2. Dilute purified HeLA oligonucleosomes and recombinant histone H1 (New England Biolabs) in assay buffer to 1.67×. • 3. Dilute EZH2 4 protein complex (EZH2, EED, SUZ12, RbAp48) to 3.5× in assay buffer • 4. Prepare 10×^3H SAM solution in assay buffer using 0.94 μCi/well of radioactive SAM (Perkin Elmer) and sufficient non-labeled SAM (Sigma) for 1.5 μM final concentration. • 5. Dilute TCA to 20% in DI water
C. Enzyme reaction • 1. Final reaction conditions are 5 nM EZH2 4-protein complex, 1.5 μM SAM, 25 μg/mL oligonucleosomes, 50 nM rH1 in a 50 μl reaction volume. • 2. Add 1 μl of diluted compound to the assay plate (96-well V-bottom polypropylene plates) or 1 μl of DMSO for control wells. • 3. Add 30 μl of nucleosomes to the assay plate • 4. Add 14 μl of EZH2 4 protein complex to the assay plate • 5. Add 5 μl of ^3H SAM to start the reaction. • 6. Stop the reaction after 60 minutes with the addition of 100 μl of 20% TCA • 7. Transfer 150 μl of quenched reaction into a prepared filterplate (Millipore #MSIPN4B10) • 8. Apply vacuum to the filterplate to filter the reaction mix through the membrane. • 9. Wash the filterplate with 8×200 μl of PBS, blot dry and dry in an oven for 30 minutes • 10. Add 50 μl of microscint-20 scintillation fluid (Perkin Elmer) to each well, wait 30 minutes and count on a liquid scintillation counter.
D. Data analysis • 1. IC50 values were determined by fitting the data to a 4-parameter IC50 equation using proprietary curve fitting software.
Wild type (WT) EZH2% Effect at 20 μM and IC50 values (μM) generated in WT EZH2 or EZH2PRC2 mutant Y641N nucleosome assays are provided in Table 3 below. A blank entry in the table indicates the data was not generated in that assay.

Sequence of EZH2PRC2 mutant Y641N (Q15910 whole entry Y641N): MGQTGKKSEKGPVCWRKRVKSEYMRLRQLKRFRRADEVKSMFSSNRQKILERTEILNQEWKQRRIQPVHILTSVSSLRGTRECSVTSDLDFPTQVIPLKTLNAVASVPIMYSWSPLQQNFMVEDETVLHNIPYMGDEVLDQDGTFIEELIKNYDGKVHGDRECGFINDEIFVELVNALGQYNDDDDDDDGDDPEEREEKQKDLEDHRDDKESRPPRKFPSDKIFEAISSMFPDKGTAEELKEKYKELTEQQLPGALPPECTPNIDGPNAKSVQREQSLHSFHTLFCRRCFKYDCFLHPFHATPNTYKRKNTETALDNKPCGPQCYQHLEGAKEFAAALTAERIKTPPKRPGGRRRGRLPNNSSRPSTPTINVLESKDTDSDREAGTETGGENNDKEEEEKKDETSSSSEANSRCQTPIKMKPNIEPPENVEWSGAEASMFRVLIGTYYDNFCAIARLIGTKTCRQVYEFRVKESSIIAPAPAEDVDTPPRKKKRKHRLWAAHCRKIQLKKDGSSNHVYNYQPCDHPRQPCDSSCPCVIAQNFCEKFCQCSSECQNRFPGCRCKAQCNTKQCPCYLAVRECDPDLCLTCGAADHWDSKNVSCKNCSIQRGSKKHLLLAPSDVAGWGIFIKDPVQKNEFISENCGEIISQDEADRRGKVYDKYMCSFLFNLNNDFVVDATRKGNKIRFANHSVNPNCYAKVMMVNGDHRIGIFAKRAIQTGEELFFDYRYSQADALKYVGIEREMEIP
Sequence of EZH2PRC2 mutant Y641N (O75530 whole entry partner): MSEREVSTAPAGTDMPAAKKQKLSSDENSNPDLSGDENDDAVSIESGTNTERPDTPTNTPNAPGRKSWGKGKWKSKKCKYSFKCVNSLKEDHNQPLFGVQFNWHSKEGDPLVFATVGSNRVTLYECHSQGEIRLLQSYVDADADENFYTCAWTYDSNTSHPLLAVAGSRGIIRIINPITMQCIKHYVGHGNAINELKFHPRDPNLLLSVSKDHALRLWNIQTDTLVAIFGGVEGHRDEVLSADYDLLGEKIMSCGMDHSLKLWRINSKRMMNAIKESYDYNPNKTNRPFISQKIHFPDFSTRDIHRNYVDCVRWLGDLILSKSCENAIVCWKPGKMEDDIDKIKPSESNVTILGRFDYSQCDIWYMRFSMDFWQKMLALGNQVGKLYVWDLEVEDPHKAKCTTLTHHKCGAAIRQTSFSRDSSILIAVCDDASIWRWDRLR
Sequence of EZH2PRC2 mutant Y641N (Q15022 whole entry partner): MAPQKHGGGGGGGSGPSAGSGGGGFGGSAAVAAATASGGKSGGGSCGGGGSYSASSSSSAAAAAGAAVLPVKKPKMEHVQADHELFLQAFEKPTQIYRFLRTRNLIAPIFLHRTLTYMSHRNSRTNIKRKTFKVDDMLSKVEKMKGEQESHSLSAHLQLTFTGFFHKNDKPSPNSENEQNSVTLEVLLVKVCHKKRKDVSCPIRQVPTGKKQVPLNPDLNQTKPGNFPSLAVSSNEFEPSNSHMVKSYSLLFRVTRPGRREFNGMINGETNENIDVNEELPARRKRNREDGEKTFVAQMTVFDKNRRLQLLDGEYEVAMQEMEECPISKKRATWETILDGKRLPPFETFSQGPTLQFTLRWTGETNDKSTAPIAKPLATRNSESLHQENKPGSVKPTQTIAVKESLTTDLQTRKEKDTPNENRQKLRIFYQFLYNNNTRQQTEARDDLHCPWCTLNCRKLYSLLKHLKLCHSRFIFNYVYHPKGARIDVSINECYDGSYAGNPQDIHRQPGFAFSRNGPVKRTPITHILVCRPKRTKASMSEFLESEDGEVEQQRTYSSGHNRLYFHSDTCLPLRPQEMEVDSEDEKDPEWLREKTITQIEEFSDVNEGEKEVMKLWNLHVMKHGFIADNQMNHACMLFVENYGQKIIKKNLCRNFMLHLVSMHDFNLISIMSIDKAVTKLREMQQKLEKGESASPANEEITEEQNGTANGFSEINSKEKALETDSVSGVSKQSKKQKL
Sequence of EZH2PRC2 mutant Y641N (Q09028 whole entry partner): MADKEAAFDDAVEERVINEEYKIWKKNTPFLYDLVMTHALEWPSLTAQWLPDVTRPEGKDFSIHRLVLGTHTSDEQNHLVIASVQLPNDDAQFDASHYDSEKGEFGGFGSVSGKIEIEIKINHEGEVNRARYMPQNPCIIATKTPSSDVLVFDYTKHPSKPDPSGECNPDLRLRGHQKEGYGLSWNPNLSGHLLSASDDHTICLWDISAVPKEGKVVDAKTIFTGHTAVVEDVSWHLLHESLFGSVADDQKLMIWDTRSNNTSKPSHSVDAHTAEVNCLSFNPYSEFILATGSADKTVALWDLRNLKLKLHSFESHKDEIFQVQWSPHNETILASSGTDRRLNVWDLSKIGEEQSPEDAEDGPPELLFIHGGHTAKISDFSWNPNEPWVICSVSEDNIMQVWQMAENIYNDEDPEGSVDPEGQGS
Sequence of WT EZH2 (EZH2 4 protein complex: EZH2, EED, SUZ12, RbAp48) (Homo sapiens, UniProt O75530+Q09028+Q15022+Q15910) (Q15910 whole entry): as the sequence (Q15910 whole entry Y641N) above, with N641Y counted along it
Sequence of WT EZH2 (EZH2 4 protein complex: EZH2, EED, SUZ12, RbAp48) (Homo sapiens, UniProt O75530+Q09028+Q15022+Q15910) (O75530 whole entry partner): as the sequence (O75530 whole entry partner) above
Sequence of WT EZH2 (EZH2 4 protein complex: EZH2, EED, SUZ12, RbAp48) (Homo sapiens, UniProt O75530+Q09028+Q15022+Q15910) (Q15022 whole entry partner): as the sequence (Q15022 whole entry partner) above
Sequence of WT EZH2 (EZH2 4 protein complex: EZH2, EED, SUZ12, RbAp48) (Homo sapiens, UniProt O75530+Q09028+Q15022+Q15910) (Q09028 whole entry partner): as the sequence (Q09028 whole entry partner) above
Sequence of WT EZH2 (EZH2 4 protein complex: EZH2, EED, SUZ12, RbAp48) (Homo sapiens, UniProt Q15910) (Q15910 whole entry): as the sequence (Q15910 whole entry Y641N) above, with N641Y counted along it
Sequence of WT EZH2 (EZH2 4 protein complex: EZH2, EED, SUZ12, RbAp48) (Homo sapiens, UniProt Q15910) (O75530 whole entry partner): as the sequence (O75530 whole entry partner) above
Sequence of WT EZH2 (EZH2 4 protein complex: EZH2, EED, SUZ12, RbAp48) (Homo sapiens, UniProt Q15910) (Q15022 whole entry partner): as the sequence (Q15022 whole entry partner) above
Sequence of WT EZH2 (EZH2 4 protein complex: EZH2, EED, SUZ12, RbAp48) (Homo sapiens, UniProt Q15910) (Q09028 whole entry partner): as the sequence (Q09028 whole entry partner) above

Row | SMILES | % Effect in WT EZH2 at 20 μM [1] [%] | IC50 [2] [µM] | IC50 (EZH2PRC2 mutant Y641N) [µM]
1 | Cc1cc(C)c(CNC(=O)c2cc(Cl)cc(-c3ccnn3C)c2C)c(=O)[nH]1 [Example 5, 5-chloro-N-[(4,6-dimethyl-2-oxo-1,2-dihydropyridin-3-yl)methyl]-2-methyl-3-(1-methyl-1H-pyrazol-5-yl)benzamide] | 94.88 | 0.45 | –
2 | Cc1cc(C)c(CNC(=O)c2cc(-c3cnn(C)c3)cc(OC(C)C)c2Cl)c(=O)[nH]1 [Example 26, 2-chloro-N-[(4,6-dimethyl-2-oxo-1,2-dihydropyridin-3-yl)methyl]-3-isopropoxy-5-(1-methyl-1H-pyrazol-4-yl)benzamide] | 93.705 | 0.93 | –
3 | Cc1cc(C)c(CNC(=O)c2cc(-c3cnn(C)c3)nc(OC(C)C)c2Cl)c(=O)[nH]1 [Example 33, 3-chloro-N-[(4,6-dimethyl-2-oxo-1,2-dihydropyridin-3-yl)methyl]-2-isopropoxy-6-(1-methyl-1H-pyrazol-4-yl)isonicotinamide] | 92.965 | 0.78 | –
4 | COc1cccc(C(=O)NCc2c(C)cc(C)[nH]c2=O)c1Br [Example 66, 2-bromo-N-[(4,6-dimethyl-2-oxo-1,2-dihydropyridin-3-yl)methyl]-3-methoxybenza-mide] | 76.288 | 4.88 | –
5 | Cc1cc(-c2cc(Cl)cc(C(=O)NCc3c(C)cc(C)[nH]c3=O)c2C)n(C)n1 [Example 77, 5-chloro-N-[(4,6-dimethyl-2-oxo-1,2-dihydropyridin-3-yl)methyl]-3-(1,3-dimethyl-1H-pyrazol-5-yl)-2-methylbenz-amide] | 69.743 | 7.03 | –
6 | Cc1cc(C)c(CNC(=O)c2nccc(OC(C)C)c2C)c(=O)[nH]1 [Example 82, N-[(4,6-dimethyl-2-oxo-1,2-dihydropyridin-3-yl)methyl]-4-isopropoxy-3-methylpyridine-2-carboxamide] | 69.830 | 7.79 | –
7 | Cc1cc(C)c(CNC(=O)c2ncnc(OC(C)C)c2Cl)c(=O)[nH]1 [Example 85] | 69.248 | 9.12 | –
8 | COc1ccc(OC)c(C(=O)NCc2c(C)cc(C)[nH]c2=O)c1Cl [Example 119, 2-chloro-N-[(4,6-dimethyl-2-oxo-1,2-dihydropyridin-3-yl)methyl]-3,6-dimethoxy-benzamide] | 44.087 | 37.4 | –
9 | COc1cc(OC)c(Cl)c(C(=O)NCc2c(C)cc(C)[nH]c2=O)c1Cl [Example 126, 2,6-dichloro-N-[(4,6-dimethyl-2-oxo-1,2-dihydropyridin-3-yl)methyl]-3,5-dimethoxybenz-amide] | 38.121 | 52 | –
10 | COc1ccc(C(=O)NCc2c(C)cc(C)[nH]c2=O)c(Cl)c1OC [Example 127, 2-chloro-N-[(4,6-dimethyl-2-oxo-1,2-dihydropyridin-3-yl)methyl]-3,4-dimethoxy-benzamide] | 35.052 | 53.3 | –
11 | Cc1cc(C)c(CNC(=O)c2c(Cl)ccc(OCCN3CCCC3)c2Cl)c(=O)[nH]1 [Example 129, 2,6-dichloro-N-[(4,6-dimethyl-2-oxo-1,2-dihydropyridin-3-yl)methyl]-3-(2-pyrrolidin-1-ylethoxy)benza-mide] | 32.145 | 54.3 | –
12 | COc1cccc(C(=O)NCc2c(C)cc(C)[nH]c2=O)c1C#N [Example 135, 2-cyano-N-[(4,6-dimethyl-2-oxo-1,2-dihydropyridin-3-yl)methyl]-3-methoxybenz-amide] | 62.306 | 141 | > 200
13 | Cc1cc(C)c(CNC(=O)c2ccnc(OC(C)C)c2F)c(=O)[nH]1 [Example 138, N-[(4,6-dimethyl-2-oxo-1,2-dihydropyridin-3-yl)methyl]-3-fluoro-2-isopropoxyiso-nicotinamide] | 44.736 | 172 | –

Results, then the molecule that gave them:

Row | % Effect in WT EZH2 at 20 μM [1] [%] | IC50 [2] [µM] | IC50 (EZH2PRC2 mutant Y641N) [µM] | SMILES
14 | 83.654 | 0.87 | 11.2 | Cc1cc(C)c(CNC(=O)c2cccc(OC(C)C)c2C)c(=O)[nH]1 [Example 32, N-((4,6-dimethyl-2-oxo-1,2-dihydropyridin-3-yl)methyl)-3-isopropoxy-2-methylbenzamide]
15 | 93.582 | 1.63 | – | Cc1cc(C)c(CNC(=O)c2cccc(OC(C)C)c2Cl)c(=O)[nH]1 [Example 46, 2-chloro-N-[(4,6-dimethyl-2-oxo-1,2-dihydropyridin-3-yl)methyl]-3-isopropoxy-benzamide]
16 | 71.459 | 4.51 | – | Cc1cc(C)c(CNC(=O)c2ccnc(OC(C)C)c2Cl)c(=O)[nH]1 [Example 65, 3-chloro-N-[(4,6-dimethyl-2-oxo-1,2-dihydropyridin-3-yl)methyl]-2-isopropoxyiso-nicotinamide]
17 | 71.325 | 7.52 | 43.1 | COc1cccc(C(=O)NCc2c(C)cc(C)[nH]c2=O)c1Cl [Example 79, 2-chloro-N-[(4,6-dimethyl-2-oxo-1,2-dihydropyridin-3-yl)methyl]-3-methoxybenza-mide]
18 | 64.416 | 9.38 | – | Cc1cc(C)c(CNC(=O)c2c(F)ccc(OC(C)C)c2Cl)c(=O)[nH]1 [Example 86, 2-chloro-N-[(4,6-dimethyl-2-oxo-1,2-dihydropyridin-3-yl)methyl]-6-fluoro-3-isopropoxy-benzamide]
19 | 43.834 | 27.1 | – | COc1c(OC(C)C)cccc1C(=O)NCc1c(C)cc(C)[nH]c1=O [Example 113, N-[(4,6-dimethyl-2-oxo-1,2-dihydropyridin-3-yl)methyl]-3-isopropoxy-2-methoxy-benzamide]
20 | 38.993 | 54.3 | – | CCCc1c(OC)cccc1C(=O)NCc1c(C)cc(C)[nH]c1=O [Example 128, N-[(4,6-dimethyl-2-oxo-1,2-dihydropyridin-3-yl)methyl]-3-methoxy-2-propylbenzamide]
21 | 20.924 | 167 | – | COc1cccc(C(=O)NCc2c(C)cc(C)[nH]c2=O)c1F [Example 137, N-[(4,6-dimethyl-2-oxo-1,2-dihydropyridin-3-yl)methyl]-2-fluoro-3-methoxybenz-amide]
22 | – | 0.0342 | 0.198 | Cc1cc(C)c(CNC(=O)c2cc(-c3ccc(N4CCN(C)CC4)nc3)cc(-c3ccnn3C)c2C)c(=O)[nH]1 [Example 149, N-[(4,6-dimethyl-2-oxo-1,2-dihydropyridin-3-yl)methyl]-2-methyl-5-[6-(4-methylpiperazin-1-yl)pyridin-3-yl]-3-(1-methyl-1H-pyrazol-5-yl)benzamide]
23 | – | 0.113 | 0.679 | Cc1cc(C)c(CNC(=O)c2cc(-c3ccc(CN4CCOCC4)cc3)cc(-c3ccnn3C)c2C)c(=O)[nH]1 [Example 150, N-[(4,6-dimethyl-2-oxo-1,2-dihydropyridin-3-yl)methyl]-4-methyl-5-(1-methyl-1H-pyrazol-5-yl)-4′-(morpholin-4-ylmethyl)bi-phenyl-3-carboxamide]
